Target: T1, human HSL (Homo sapiens, UniProt Q05469)
T1 construct: overlapping PCR to generate a full length human HSL ORF with a 3′-His6 tag; His6 (C); made in house; host or cells: High 5 insect cells (baculovirus, pFast-BAC)
T1 sequence (Q05469 1-1076): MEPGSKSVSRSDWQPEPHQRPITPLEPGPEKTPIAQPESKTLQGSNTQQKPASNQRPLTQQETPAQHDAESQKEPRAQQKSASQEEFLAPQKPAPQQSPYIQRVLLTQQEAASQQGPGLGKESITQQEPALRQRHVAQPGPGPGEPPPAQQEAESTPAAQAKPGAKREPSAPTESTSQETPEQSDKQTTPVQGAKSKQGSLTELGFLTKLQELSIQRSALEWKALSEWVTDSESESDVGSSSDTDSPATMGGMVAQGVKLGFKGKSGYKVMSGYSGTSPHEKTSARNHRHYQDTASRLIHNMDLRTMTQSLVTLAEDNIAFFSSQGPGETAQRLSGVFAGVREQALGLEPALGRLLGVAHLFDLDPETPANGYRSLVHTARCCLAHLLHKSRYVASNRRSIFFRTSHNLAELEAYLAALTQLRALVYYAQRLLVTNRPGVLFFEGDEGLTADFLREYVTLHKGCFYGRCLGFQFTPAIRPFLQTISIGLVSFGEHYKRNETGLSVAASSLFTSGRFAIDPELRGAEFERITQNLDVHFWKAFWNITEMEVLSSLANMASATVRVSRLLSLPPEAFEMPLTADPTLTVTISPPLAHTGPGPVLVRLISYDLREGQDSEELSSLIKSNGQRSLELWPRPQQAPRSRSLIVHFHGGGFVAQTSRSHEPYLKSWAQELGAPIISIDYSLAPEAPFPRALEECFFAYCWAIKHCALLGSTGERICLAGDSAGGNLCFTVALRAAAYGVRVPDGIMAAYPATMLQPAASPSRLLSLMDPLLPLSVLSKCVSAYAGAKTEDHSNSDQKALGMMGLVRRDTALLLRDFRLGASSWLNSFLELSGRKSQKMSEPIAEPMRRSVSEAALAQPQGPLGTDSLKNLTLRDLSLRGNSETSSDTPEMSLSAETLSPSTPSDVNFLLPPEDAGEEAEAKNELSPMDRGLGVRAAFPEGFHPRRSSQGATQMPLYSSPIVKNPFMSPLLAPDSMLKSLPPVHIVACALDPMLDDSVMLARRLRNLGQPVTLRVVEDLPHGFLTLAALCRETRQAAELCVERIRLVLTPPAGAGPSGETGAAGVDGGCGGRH
Test: Human Hormone-Sensitive Lipase (HSL) enzyme inhibition assay (colorimetric, DMPT substrate)
Format: biochemical
Details: human full length HSL-His6, 2,3-dimercapto-1-propanol tributyrate substrate, 37° C. 20 minutes, absorbance at 405 nm; read-out: HSL hum IC50
Protocol: 1) Cloning: cDNA was prepared from commercial human brain polyA+ RNA and used as a template in overlapping PCR to generate a full length human HSL ORF with a 3′-His6 tag. This full length insert was cloned into the pFast-BAC vector and the DNA-sequence of several single clones was verified. DNA from a correct full length clone with the 3′His6 tag was used to transform the E. coli strain DH10BAC. Resulting bacmid DNA was used to generate a titered baculovirus stock for protein generation.
Cells were thawed. […] was done at 3×30 sec., Lubrol PX was added to 0.2% final concentration followed by stirring for 15 min. at 4° C. and centrifugation at 25 k×g, 60 min., 4° C. […] Supernatant was removed, the resin washed in the centrifuge vessel using 5 volumes of Base Buffer containing 0.2% Lubrol PX. Centrifugation was done again, then the supernatant discarded. The resin was poured onto a 0.8 μm membrane in a disposable filter unit (Nalge 450-0080), and washed with 5 volumes of Base Buffer containing 0.2% Lubrol PX. It was then washed with 30 volumes of Base Buffer containing 60 mM imidazole pH 7.5 at 4° C. The protein was eluated with 5 volumes of 25 mM Tris-Cl, 300 mM NaCl, 200 mM imidazole, 10 mM 2-mercaptoethanol, pH 7.5 at 4° C. by tumbling resin with buffer end-over-end, 30 min., 4° C. The resin was captured on a 0.2 μm membrane disposable filter unit (Millipore SCGP U02 RE) and the eluate collected in the reservoir. The eluate was concentrated using a 30 k MWCO centrifugal filter device (Sartorius Vivascience Vivacell 100, VC1022), to 20 ml. It was then dialyzed overnight at 4° C., two times against 2 L of 10% glycerol, 25 mM Tris-Cl, 300 mM NaCl, 0.2 mM EDTA, 0.2 mM DTT, pH 7.5 at 4° C. The protein was filtered using a 0.22 μm disposable filter unit (Millipore SCGP00525). The protein concentration was calculated from absorbance at 280 nm, using 280=0.67 cm-1 mg-1. […] The protein was stored at −80° C.
Human Hormone-Sensitive Lipase (HSL) Enzyme Inhibition Assay:
HSL enzyme activity was measured by a colorimetric assay using 2,3-dimercapto-1-propanol tributyrate (Aldrich, St. Louis, Mo.) as a substrate. Typically, 1.5 mM 2,3-dimercapto-1-propanol tributyrate (DMPT) in 100 mM MOPS, pH 7.2, 0.2 mg/ml fatty acid-free BSA was prepared by sonication at 4° C. to homogenous suspension. Test compounds (2 mM stock in DMSO) were diluted 3 fold in series in DMSO. Compound solutions were diluted 24 fold in 1.5 mM DMPT containing solution and 18 ul per well was added to 384-well microplates (Corning Costar). Twelve microliters per well of human HSL (15 ug/ml) was added and the reaction mixture was incubated at 37° C. for 20 minutes. Six microliters of 12 mM dithio-bis-(2-nitrobenzoic acid) (DTNB) in DMSO plus 1.2% SDS and 0.6% Triton X-100 were added and the mixture was incubated at room temperature for 15 minutes. Product production was monitored by reading absorbance at 405 nm on an Envision Reader (PerkinElmer Life and Analytical Sciences, Shelton, Conn.).

Row | IC50 | Structure (SMILES)
1 | 40 nM | CC(C(=O)Nc1ccc(F)cc1)N1CCC2(CCN(c3ccc(C4CC4)cc3)C2=O)CC1 (stereo not shown) [Example 25, 2-[2-(4-Cyclopropyl-phenyl)-1-oxo-2,8-diaza-spiro[4.5]dec-8-yl]-N-(4-fluoro-phenyl)-propionamide]
2 | 50 nM | CCC(C(=O)Nc1ccc(F)cc1)N1CCC2(CCN(c3ccc(C4CC4)cc3)C2=O)CC1 (stereo not shown) [Example 26, 2-[2-(4-Cyclopropyl-phenyl)-1-oxo-2,8-diaza-spiro[4.5]dec-8-yl]-N-(4-fluoro-phenyl)-butyramide]
3 | 30 nM | CCCCNC(=O)C(C)N1CCC2(CCN(c3ccc(C4CC4)cc3)C2=O)CC1 (stereo not shown) [Example 27, N-Butyl-2-[2-(4-cyclopropyl-phenyl)-1-oxo-2,8-diaza-spiro[4.5]dec-8-yl]-propionamide]
4 | 30 nM | CCCCNC(=O)C(CC)N1CCC2(CCN(c3ccc(C4CC4)cc3)C2=O)CC1 (stereo not shown) [Example 28, N-Butyl-2-[2-(4-cyclopropyl-phenyl)-1-oxo-2,8-diaza-spiro[4.5]dec-8-yl]-butyramide]
5 | 40 nM | CCCCNC(=O)C(c1ccccc1)N1CCC2(CCN(c3ccc(C4CC4)cc3)C2=O)CC1 (stereo not shown) [Example 29, N-Butyl-2-[2-(4-cyclopropyl-phenyl)-1-oxo-2,8-diaza-spiro[4.5]dec-8-yl]-2-phenyl-acetamide]
6 | 20 nM | CCCCNC(=O)C(CCCC)N1CCC2(CCN(c3ccc(C4CC4)cc3)C2=O)CC1 (stereo not shown) [Example 30, 2-[2-(4-Cyclopropyl-phenyl)-1-oxo-2,8-diaza-spiro[4.5]dec-8-yl]-hexanoic acid butylamide]
7 | 20 nM | CCCCNC(=O)C(C(C)C)N1CCC2(CCN(c3ccc(C4CC4)cc3)C2=O)CC1 (stereo not shown) [Example 31, N-Butyl-2-[2-(4-cyclopropyl-phenyl)-1-oxo-2,8-diaza-spiro[4.5]dec-8-yl]-3-methyl-butyramide]
8 | 90 nM | O=C1N(c2ccc(C3CC3)cc2)CCC12CCN(C[C@@H](O)c1ccccc1)CC2 [Example 32, 2-(4-Cyclopropyl-phenyl)-8-((S)-2-hydroxy-2-phenyl-ethyl)-2,8-diaza-spiro[4.5]decan-1-one]
9 | 40 nM | O=C1N(c2ccc(C3CC3)cc2)CCC12CCN(C[C@H](O)c1ccccc1)CC2 [Example 33, 2-(4-Cyclopropyl-phenyl)-8-((R)-2-hydroxy-2-phenyl-ethyl)-2,8-diaza-spiro[4.5]decan-1-one]
10 | 100 nM | CC(O)(CN1CCC2(CC1)CCN(c1ccc(C3CC3)cc1)C2=O)c1ccccc1 (stereo not shown) [Example 34, 2-(4-Cyclopropyl-phenyl)-8-(2-hydroxy-2-phenyl-propyl)-2,8-diaza-spiro[4.5]decan-1-one]
11 | 20 nM | O=C1N(c2ccc(C3CC3)cc2)CCC12CCN(C[C@H](O)c1ccc(F)cc1)CC2 [Example 35, 2-(4-Cyclopropyl-phenyl)-8-[(R)-2-(4-fluoro-phenyl)-2-hydroxy-ethyl]-2,8-diaza-spiro[4.5]decan-1-one]
12 | 30 nM | O=C1N(c2ccc(C3CC3)cc2)CCC12CCN(C[C@H](O)c1cccc(Cl)c1)CC2 [Example 36, 8-[(R)-2-(3-Chloro-phenyl)-2-hydroxy-ethyl]-2-(4-cyclopropyl-phenyl)-2,8-diaza-spiro[4.5]decan-1-one]
13 | 30 nM | O=C1N(c2ccc(C3CC3)cc2)CCC12CCN(CC(O)c1ccc(Cl)c(Cl)c1)CC2 (stereo not shown) [Example 37, 2-(4-Cyclopropyl-phenyl)-8-[2-(3,4-dichloro-phenyl)-2-hydroxy-ethyl]-2,8-diaza-spiro[4.5]decan-1-one]
14 | 30 nM | O=C1N(c2ccc(C3CC3)cc2)CCC12CCN(CC(O)c1ccc(Cl)cc1Cl)CC2 (stereo not shown) [Example 38, 2-(4-Cyclopropyl-phenyl)-8-[2-(2,4-dichloro-phenyl)-2-hydroxy-ethyl]-2,8-diaza-spiro[4.5]decan-1-one]
15 | 165 nM | COc1ccc(C(C(O)C(N)=O)N2CCC3(CCN(c4ccc(C5CC5)cc4)C3=O)CC2)cc1 (stereo not shown) [Example 40, 3-[2-(4-Cyclopropyl-phenyl)-1-oxo-2,8-diaza-spiro[4.5]dec-8-yl]-2-hydroxy-3-(4-methoxy-phenyl)-propionamide]
16 | 47 nM | CCCCNC(=O)[C@H](CCCC)N1CCC2(CCN(c3ccc(C4CC4)cc3)C2=O)CC1 [Example 41, (S)-2-[2-(4-Cyclopropyl-phenyl)-1-oxo-2,8-diaza-spiro[4.5]dec-8-yl]-hexanoic acid butylamide]
17 | 11 nM | CCCCNC(=O)[C@@H](CCCC)N1CCC2(CCN(c3ccc(C4CC4)cc3)C2=O)CC1 [Example 42, (R)-2-[2-(4-Cyclopropyl-phenyl)-1-oxo-2,8-diaza-spiro[4.5]dec-8-yl]-hexanoic acid butylamide]
18 | 36 nM | CCc1ccc(N2CCC3(CCN(CC(=O)c4ccc(Cl)cc4Cl)CC3)C2=O)cc1 [Example 43, 8-[2-(2,4-Dichloro-phenyl)-2-oxo-ethyl]-2-(4-ethyl-phenyl)-2,8-diaza-spiro[4.5]decan-1-one]
19 | 26 nM | O=C1N(c2ccc(OCC(F)(F)F)cc2)CCC12CCN(CC(O)c1ccc(Cl)cc1Cl)CC2 (stereo not shown) [Example 44, 8-[2-(2,4-Dichloro-phenyl)-2-hydroxy-ethyl]-2-[4-(2,2,2-trifluoro-ethoxy)-phenyl]-2,8-diaza-spiro[4.5]decan-1-one]
20 | 22 nM | C[C@@H](Oc1ccc(N2CCC3(CCN(CC(O)c4ccc(Cl)cc4Cl)CC3)C2=O)cn1)C(F)(F)F (stereo partly drawn) [Example 45, 8-[2-(2,4-Dichloro-phenyl)-2-hydroxy-ethyl]-2-[6-((R)-2,2,2-trifluoro-1-methyl-ethoxy)-pyridin-3-yl]-2,8-diaza-spiro[4.5]decan-1-one]
21 | 19 nM | O=C1N(c2ccc(CC(F)(F)F)cc2)CCC12CCN(CC(O)c1ccc(Cl)cc1Cl)CC2 (stereo not shown) [Example 46, 8-[2-(2,4-Dichloro-phenyl)-2-hydroxy-ethyl]-2-[4-(2,2,2-trifluoro-ethyl)-phenyl]-2,8-diaza-spiro[4.5]decan-1-one]
22 | 35 nM | O=C1N(c2ccc(OCC(F)(F)F)cc2)CCC12CCN(CC(O)c1c(F)cccc1Cl)CC2 (stereo not shown) [Example 47, 8-[2-(2-Chloro-6-fluoro-phenyl)-2-hydroxy-ethyl]-2-[4-(2,2,2-trifluoro-ethoxy)-phenyl]-2,8-diaza-spiro[4.5]decan-1-one]
